≈ marks a conversion by molar mass, not a printed value.

The text below walks through data of ChEMBL document CHEMBL1150935, “New polyketides from the sponge Plakortis sp” (J Nat Prod, 1998).

The data set is described as follows: Toxicity against Artemia larvae. The format is organism-based. The conditions noted are these: in vivo, read-out: LD50 (the source's name).
As to `CCCC[C@H](C)CC1(CC)C=C(CC)C(CC(=O)OCC)OO1` (some centres undefined), the LC50 was above 100 µg/mL.

As for `CCCC[C@H](C)CC(CC)C[C@@]1(CC)C[C@H](CC)[C@H](CC(=O)O)OO1` (some centres undefined), the LC50 was 15 µg/mL (≈ 42.1 µM). On to `CCCC[C@H](C)CC1(CC)C=C(CC)C(CC(=O)OC)OO1` (some centres undefined), for which the LC50 was found to be 70 µg/mL (≈ 224 µM). As to `CCCC[C@H](C)C[C@]1(CC)C=C(CC)/C(=C/C(=O)OC)O1`, the LC50 is 7 µg/mL (≈ 23.8 µM).
